Data published in the supplement of paper PMC10307832.

Experiments:
Assay in all cases: relative viability (nuclei count vs DMSO), 5 days (fraction); higher = more cells survive
[1] = compound: COc1nc(N)nc2c1ncn2[C@@H]1O[C@H](CO)[C@@H](O)[C@@H]1O [Nelarabine] + Nc1nc2[nH]cc(CCc3ccc(C(=O)N[C@@H](CCC(=O)O)C(=O)O)cc3)c2c(=O)[nH]1 [Pemetrexed] (partner 0.2 µM)
Outline: (§1)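 Five library-drug doses in √10 steps were combined with a fixed anchor-drug dose, or a single drug was given alone, by pin tool to lung cancer cell lines in 1536-well plates the day after seeding. Nuclei were stained and counted after 5 days. Relative viability is the nuclei count in treated wells over that in vehicle wells, taken as the median of duplicate plates.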

[2] = compound: COc1nc(N)nc2c1ncn2[C@@H]1O[C@H](CO)[C@@H](O)[C@@H]1O [Nelarabine] + C[C@@H](Oc1cc(-c2cnn(C3CCNCC3)c2)cnc1N)c1c(Cl)ccc(F)c1Cl [Crizotinib] (partner 1 µM)
Outline: as §1

[3] = compound: COc1nc(N)nc2c1ncn2[C@@H]1O[C@H](CO)[C@@H](O)[C@@H]1O [Nelarabine] + Nc1ncn([C@H]2C[C@H](O)[C@@H](CO)O2)c(=O)n1 [Decitabine] (partner 2 µM)
Outline: as §1

[4] = compound: COc1nc(N)nc2c1ncn2[C@@H]1O[C@H](CO)[C@@H](O)[C@@H]1O [Nelarabine] + O=C(c1cc(Cc2n[nH]c(=O)c3ccccc23)ccc1F)N1CCN(C(=O)C2CC2)CC1 [Olaparib] (partner 8 µM)
Outline: as §1

Cell Line: EMC-BAC-2
- relative viability ([1]; first compound 0.01 µM): 0.44
- relative viability ([1]; first compound 0.03162 µM): 0.456
- relative viability ([1]; first compound 0.1 µM): 0.502
- relative viability ([1]; first compound 0.3162 µM): 0.52
- relative viability ([1]; first compound 1 µM): 0.508
- relative viability ([2]; first compound 0.01 µM): 0.734
- relative viability ([2]; first compound 0.03162 µM): 0.624
- relative viability ([2]; first compound 0.1 µM): 0.782
- relative viability ([2]; first compound 0.3162 µM): 0.843
- relative viability ([2]; first compound 1 µM): 0.683
- relative viability ([3]; first compound 0.01 µM): 0.885
- relative viability ([3]; first compound 0.03162 µM): 1.11
- relative viability ([3]; first compound 0.1 µM): 0.912
- relative viability ([3]; first compound 0.3162 µM): 0.864
- relative viability ([3]; first compound 1 µM): 0.995
- relative viability ([4]; first compound 0.01 µM): 0.538
- relative viability ([4]; first compound 0.03162 µM): 0.432
- relative viability ([4]; first compound 0.1 µM): 0.486
- relative viability ([4]; first compound 0.3162 µM): 0.529
- relative viability ([4]; first compound 1 µM): 0.553
